Test results taken from US8153593B2, “Transglutaminase inhibitors and methods of use thereof” (The Board of Trustees of the Leland Stanford Junior …, priority 2003, dated 2012).

Tests used:
[1] = system: subcutaneous murine DBT glioblastoma tumors; assay: Subcutaneous DBT glioblastoma tumor study with BCNU; details: in vivo, combination with BCNU
HCT-116 = assay: Combination with epothilone C in colon cancer cells; assay type: cell-based, human; details: KCC009 in the 1-100 μM range
[2] = Preliminary pharmacokinetic and toxicity studies; details: mice
[3] = system: IOMM-Lee meningioma cells; assay: Meningioma cell sensitization to radiation, TG2-fibronectin Western blot; assay type: cell-based; details: 0.5 mM KCC009
Procedure: FIG. 4: Top left: control IOMM meningioma cells; Top right: IOMM cells exposed to 20 Gy radiation; Bottom left: IOMM cells exposed to 0.5 mM KCC009 and 20 Gy radiation.
FIG. 5: Western blot analysis of lysates from IOMM cells treated with KCC009 and/or BCNU. Lysates were immunoprecipitated with anti-fibronectin antibodies, and the Western blots were probed with anti-TG2 antibodies. Lanes (left to right): Control, KCC009 only, BCNU only, KCC009+BCNU. KCC009 and BCNU were used at concentrations of 0.5 mM and 6.25 μM, respectively. Disappearance of TG2 from lanes treated with KCC009 illustrates loss of association of TG2 with the extracellular matrix.
To verify the therapeutic utility of KCC009 against meningiomas, IOMM-Lee meningioma cells were treated with 20 Gy of radiation with and without KCC009. […] Similar data was also obtained when KCC009 was used in combination with BCNU.

[4] = target: T1, small intestine mucosal TG2 (Mus musculus, UniProt P21981); assay: Small intestine mucosal TG2 activity after intra-peritoneal dosing; assay type: in vivo, mice
T1 construct: from tissue; host or cells: mouse small intestinal mucosa
T1 sequence (P21981 1-686): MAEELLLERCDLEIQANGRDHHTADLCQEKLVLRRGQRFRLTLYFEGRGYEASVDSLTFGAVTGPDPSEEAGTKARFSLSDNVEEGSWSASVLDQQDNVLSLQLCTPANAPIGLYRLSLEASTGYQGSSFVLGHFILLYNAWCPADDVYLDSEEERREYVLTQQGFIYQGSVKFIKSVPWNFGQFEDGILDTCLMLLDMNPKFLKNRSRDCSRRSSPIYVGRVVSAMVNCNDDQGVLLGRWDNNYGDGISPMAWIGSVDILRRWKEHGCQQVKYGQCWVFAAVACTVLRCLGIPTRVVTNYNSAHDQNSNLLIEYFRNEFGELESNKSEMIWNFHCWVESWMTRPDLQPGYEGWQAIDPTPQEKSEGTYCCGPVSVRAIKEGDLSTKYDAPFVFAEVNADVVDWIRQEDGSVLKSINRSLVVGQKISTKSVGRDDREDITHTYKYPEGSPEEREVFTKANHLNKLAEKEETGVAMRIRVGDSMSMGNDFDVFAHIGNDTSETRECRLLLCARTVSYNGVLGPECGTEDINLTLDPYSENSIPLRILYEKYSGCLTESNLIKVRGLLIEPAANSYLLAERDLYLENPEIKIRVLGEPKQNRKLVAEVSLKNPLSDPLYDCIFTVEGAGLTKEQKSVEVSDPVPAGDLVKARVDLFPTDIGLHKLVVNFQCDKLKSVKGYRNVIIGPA
Procedure: FIG. 7: Time dependent inhibition of small intestine mucosal TG2 in mice dosed intra-peritoneally with 60 mg/kg KCC009. Mice were sacrificed at different times, intestinal mucosa were harvested and assayed for TG2 activity.
Due to the absence of an appropriate animal model for Celiac Sprue, the therapeutic benefit of TG2 inhibitors for this disease can only be validated in patients. Our goal is therefore to identify a safe, oral TG2 inhibitor that can block mucosal TG2 activity in the upper small intestine of Celiac Sprue patients. Such an agent could be used in the context of a short (2 week) blinded crossover trial in Celiac Sprue patients to determine if TG2 inhibition protects a Celiac Sprue patient from gluten-induced malabsorption. From available data, KCC009 may be precisely such a compound. […] To test whether orally administered KCC009 can inhibit jejunal TG2 activity, adult male rats were dosed with 35 mg/kg KCC009 in a kneaded gluten vehicle. Animals were sacrificed 1 h after administration of either vehicle-gluten (n=3) or drug-gluten (n=4), and jejunal mucosa was harvested. In vehicle treated animals, jejunal TG2 activity was 21±7 pmol/min/mg protein, whereas in KCC009 treated rats TG2 activity of 5.5±3 pmol/min/mg protein was observed. Thus, a suitable oral formulation may therefore enable local delivery of KCC009 to intestinal mucosa.

glioblastoma cells = assay: In vitro treatment of glioblastoma cells; assay type: cell-based
[5] = target: T2, recombinant human tissue transglutaminase (Homo sapiens, UniProt P21980); assay: tTGase inhibition assay, residual activity by glutamate dehydrogenase coupled assay; assay type: biochemical; details: dihydroisoxazoles, Table 1
T2 construct: made in house
T2 sequence (P21980 1-687): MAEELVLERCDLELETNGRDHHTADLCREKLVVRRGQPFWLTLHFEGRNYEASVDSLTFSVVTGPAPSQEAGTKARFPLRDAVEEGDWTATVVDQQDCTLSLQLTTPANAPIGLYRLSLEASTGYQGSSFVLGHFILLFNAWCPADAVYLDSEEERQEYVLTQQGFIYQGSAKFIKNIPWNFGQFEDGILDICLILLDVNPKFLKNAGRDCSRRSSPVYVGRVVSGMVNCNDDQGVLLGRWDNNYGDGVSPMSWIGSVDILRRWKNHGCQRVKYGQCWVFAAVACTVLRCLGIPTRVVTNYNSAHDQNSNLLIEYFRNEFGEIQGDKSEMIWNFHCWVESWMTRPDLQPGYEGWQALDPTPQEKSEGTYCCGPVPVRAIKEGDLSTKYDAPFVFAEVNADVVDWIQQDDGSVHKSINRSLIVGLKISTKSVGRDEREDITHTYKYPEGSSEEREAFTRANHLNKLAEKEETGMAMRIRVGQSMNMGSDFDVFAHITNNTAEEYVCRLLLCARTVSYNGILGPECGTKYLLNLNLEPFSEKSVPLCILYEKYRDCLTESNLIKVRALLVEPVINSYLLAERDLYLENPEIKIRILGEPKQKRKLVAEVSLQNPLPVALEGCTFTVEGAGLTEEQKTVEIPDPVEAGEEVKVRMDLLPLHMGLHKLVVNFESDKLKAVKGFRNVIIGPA

Q: Which “synergism with BCNU” value [1] does the source give for `O=C(N[C@@H](Cc1ccc(O)cc1)C(=O)NCC1CC(Br)=NO1)OCc1ccccc1` (stereo partly drawn) [Compound 59] here?
A: excellent synergism

Q: And the “reduction of GI50 for epothilone C” value (HCT-116)?
A: > 2 fold

Q: And the oral bioavailability [2]?
A: reasonable oral bioavailability

Q: What about the serum half-life [2] of the same compound?
A: short

Q: And the toxicity [2]?
A: low toxicity

Q: What about the sensitization to radiation ([3]; 20 Gy radiation) of the same compound?
A: dramatically sensitized meningioma cells to radiation

Q: And the “association between TG2 and fibronectin” value ([3]; fibronectin immunoprecipitate, anti-TG2 Western blot)?
A: loss of association between TG2 and fibronectin

Q: And the “time to complete recovery of TG2 activity” value ([4]; 60 mg/kg intra-peritoneal)?
A: ≤ 8 h

Q: And the “inhibition of TG2 activity” value ([4]; 60 mg/kg intra-peritoneal, short timescale (˜1 h))?
A: strong inhibition of TG2 activity

Q: And the “TG2 inhibition in small intestinal tissue” value ([4]; mice, preliminary pharmacodynamic study)?
A: efficient TG2 inhibition

Q: What about the apoptosis (glioblastoma cells) of the same compound?
A: promoted apoptosis

Q: What about the “changes in levels of survival proteins” value (glioblastoma cells) of the same compound?
A: markedly decreased levels of phosphorylated Akt, survivin, phosphorylated Bad, and phosphorylated glycogen synthetase kinase 3β; and increased levels of the pro-apoptotic BH3-only protein, Bim

Q: And the “sensitivity to chemotherapeutic agents” value (glioblastoma cells)?
A: enhanced sensitivity to chemotherapeutic agents

Q: And the kinh [5]?
A: 0.86 min⁻¹

Q: What about the kinh/Ki [5] of the same compound?
A: 2000 min^−1M^−1
